36 compounds from US9163015B2, “Pyrazolopyridine, pyrarolopyrazine, pyrazolopyrimidine, pyrazolothiophene and pyrazolothiazole compounds as MGLUR4 allosteric potentiators, compositions, and methods of treating neurological dysfunction” (Vanderbilt University, priority 2010, dated 2015) can be followed below.

This assay has as its target human mGluR4 (Homo sapiens (Human), UniProt Q14833). Kind of assay: mGluR4 potentiation assay, CHO cells transfected with human mGluR4, Ca2+-sensitive fluorescent dye, EC20 agonist. The assay is classed as cell-based. The settings on record: potentiation of mGluR4; table does not state human or rat receptor. Here is the method:
The disclosed compounds and compositions can be evaluated for their ability to act as a potentiator of metabotropic glutamate receptor activity, in particular mGluR4 activity, by any suitable known methodology known in the art. For example, Chinese Hamster Ovary (CHO) cells transfected with human mGluR4 or HEK cells co-transfected with rat mGluR4 and the G-protein regulated Inwardly Rectifying Potassium channel (GIRK) were plated in clear bottom assay plates for assay in a Hamamatsu FDSS Fluorometric Plate Reader. The cells were loaded with either a Ca2+-sensitive fluorescent dye or the thallium responsive dye and the plates were washed and placed into a suitable kinetic plate reader. For human mGluR4 assays, a fluorescence baseline was established for 3-5 seconds, the disclosed compounds were then added to the cells, and the response in cells was measured. Approximately two and a half minutes later, a concentration of mGluR4 orthosteric agonist (e.g. glutamate or L-AP4) eliciting approximately 20% (EC20) of the maximal agonist response was added to the cells, and the response was measured. Two minutes later, a concentration of mGluR4 agonist (e.g. glutamate or L-AP4) eliciting 80% (EC80) of the maximal agonist response was added to the cells, and the response was measured. For rat mGluR4/GIRK experiments, a baseline was established for approximately five seconds, disclosed compounds were added, and either an EC20 or EC80 concentration of agonist was added approximately two and one half minutes later.
The above described assay operated in two modes. In the first mode, a range of concentrations of the disclosed compounds are added to cells, followed by a single fixed concentration of agonist. If the compound acts as a potentiatior, an EC50 value for potentiation and a maximum extent of potentiation by the compound at this concentration of agonist is determined by non-linear curve fitting. If the compound acts as a noncompetitive antagonist, an IC50 value is determined by non-linear curve fitting. In the second mode, several fixed concentrations of the disclosed compounds are added to various wells on a plate, followed by a range in concentrations of agonist for each concentration of disclosed compound. The EC50 values for the agonist at each concentration of compound are determined by non-linear curve fitting. A decrease in the EC50 value of the agonist with increasing concentrations of the sample compound (a leftward shift of the agonist concentration-response curve) is an indication of the degree of mGluR4 potentiation at a given concentration of the sample compound. A decrease in the maximal response of the agonist with increasing concentrations of the sample compounds, with or without a rightward shift in agonist potency, is an indication of the degree of noncompetitive antagonism at mGluR4. The second mode also indicates whether the sample compounds also affect the maximum response to mGluR4 to agonists.

Chain of human mGluR4 (Q14833 33-912): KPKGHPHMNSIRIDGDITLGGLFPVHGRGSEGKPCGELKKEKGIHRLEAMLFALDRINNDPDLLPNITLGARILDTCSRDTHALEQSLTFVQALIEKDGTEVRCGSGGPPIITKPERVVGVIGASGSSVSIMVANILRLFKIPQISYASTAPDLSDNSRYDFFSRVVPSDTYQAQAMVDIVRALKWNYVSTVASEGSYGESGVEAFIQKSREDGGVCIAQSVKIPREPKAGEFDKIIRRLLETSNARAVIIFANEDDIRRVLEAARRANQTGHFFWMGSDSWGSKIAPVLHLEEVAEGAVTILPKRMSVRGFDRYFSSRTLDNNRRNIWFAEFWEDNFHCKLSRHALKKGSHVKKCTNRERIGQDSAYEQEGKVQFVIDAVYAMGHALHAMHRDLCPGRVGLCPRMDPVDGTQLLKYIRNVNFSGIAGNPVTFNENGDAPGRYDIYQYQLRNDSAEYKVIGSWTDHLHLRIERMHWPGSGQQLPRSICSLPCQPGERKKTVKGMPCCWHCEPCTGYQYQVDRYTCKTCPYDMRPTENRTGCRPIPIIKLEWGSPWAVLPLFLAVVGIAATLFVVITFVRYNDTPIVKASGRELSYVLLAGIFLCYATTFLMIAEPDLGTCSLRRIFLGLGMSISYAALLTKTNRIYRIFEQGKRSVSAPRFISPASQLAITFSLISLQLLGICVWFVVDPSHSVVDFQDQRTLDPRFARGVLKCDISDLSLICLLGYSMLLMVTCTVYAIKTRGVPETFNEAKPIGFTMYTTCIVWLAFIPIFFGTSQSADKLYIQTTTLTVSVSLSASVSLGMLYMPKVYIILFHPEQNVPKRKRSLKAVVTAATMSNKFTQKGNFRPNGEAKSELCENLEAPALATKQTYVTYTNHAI

With `Clc1cccc(CNc2n[nH]c3cccnc23)c1` [Example 50, N-(3-chlorobenzyl)-1H-pyrazolo[4,3-b]pyridin-3-amine], the EC50 (commonly the concentration at which the effect is half-maximal) is 17300 nM.
With `CS(=O)(=O)c1ccc(Nc2n[nH]c3cccnc23)cc1F` [Example 58, N-(3-fluoro-4-(methylsulfonyl)phenyl)-1H-pyrazolo[4,3-b]pyridin-3-amine], the EC50 was 11500 nM.
On to `Clc1ccc(Nc2n[nH]c3cccnc23)cc1Cl` [Example 68, N-(3,4-dichlorophenyl)-1H-pyrazolo[4,3-b]pyridin-3-amine], for which the EC50 came out at 113 nM.
With `CS(=O)(=O)c1ccc(Nc2n[nH]c3cccnc23)cc1Cl` [Example 56, N-(3-chloro-4-(methylsulfonyl)phenyl)-1H-pyrazolo[4,3-b]pyridin-3-amine], the concentration for a half-maximal effect (EC50) stood at 7860 nM.
For `c1ccc(Nc2n[nH]c3cccnc23)cc1` [Example 20, N-phenyl-1H-pyrazolo[4,3-b]pyridin-3-amine] the value was 1440 nM; for `Fc1cc(Nc2n[nH]c3cccnc23)ccc1Oc1cc(C(F)(F)F)ccn1` [Example 75, N-(3-fluoro-4-((4-(trifluoromethyl)pyridin-2-yl)oxy)phenyl)-1H-pyrazolo[4,3-b]pyridin-3-amine], 497 nM; for `O=C(c1ccccc1F)c1ccc(Nc2n[nH]c3cccnc23)cc1Cl` [Example 88, (4-((1H-pyrazolo[4,3-b]pyridin-3-yl)amino)-2-chlorophenyl)(2-fluorophenyl)methanone], 311 nM.
The result for `Clc1cc(Nc2n[nH]c3cccnc23)ccc1Oc1ccccn1` [Example 52, N-(3-chloro-4-(pyridin-2-yloxy)phenyl)-1H-pyrazolo[4,3-b]pyridin-3-amine] reads 112 nM.
As for `Cc1cc(Nc2n[nH]c3cccnc23)ccc1Cl` [Example 7, N-(4-chloro-3-methylphenyl)-1H-pyrazolo[4,3-b]pyridin-3-amine], the EC50 came out at 164 nM.
Turning to `CS(=O)(=O)c1cc(Nc2n[nH]c3cccnc23)ccc1F` [Example 72, N-(4-fluoro-3-(methylsulfonyl)phenyl)-1H-pyrazolo[4,3-b]pyridin-3-amine], the EC50 stood at 9100 nM.
The result for `Fc1cc(F)cc(Nc2n[nH]c3cccnc23)c1` [Example 85, N-(3,5-difluorophenyl)-1H-pyrazolo[4,3-b]pyridin-3-amine] reads 101 nM; that for `Clc1ccc(Nc2n[nH]c3cccnc23)cn1` [Example 15, N-(6-chloropyridin-3-yl)-1H-pyrazolo[4,3-b]pyridin-3-amine], 5500 nM.
Consider `Cc1cncc(Nc2n[nH]c3cccnc23)c1` [Example 33, N-(5-methylpyridin-3-yl)-1H-pyrazolo[4,3-b]pyridin-3-amine], for which the EC50 came to 7380 nM.
With `Fc1cc(Nc2n[nH]c3cccnc23)cc(F)c1F` [Example 80, N-(3,4,5-trifluorophenyl)-1H-pyrazolo[4,3-b]pyridin-3-amine], the concentration giving a half-maximal response (EC50) is 146 nM.
The result for `Clc1cc(Nc2n[nH]c3cccnc23)cnc1Cl` [Example 47, N-(5,6-dichloropyridin-3-yl)-1H-pyrazolo[4,3-b]pyridin-3-amine] reads 1020 nM.
On to `c1cnc2c(Nc3nccs3)n[nH]c2c1` [Example 45, N-(1H-pyrazolo[4,3-b]pyridin-3-yl)thiazol-2-amine], for which the concentration giving a half-maximal response (EC50) was 10000 nM.
On to `FC(F)(F)c1ccc(Nc2n[nH]c3cccnc23)cc1Cl` [Example 22, N-(3-chloro-4-(trifluoromethyl)phenyl)-1H-pyrazolo[4,3-b]pyridin-3-amine], for which the EC50 was found to be 2150 nM.
For the compound `Clc1cc(Nc2n[nH]c3cccnc23)cc(Cl)c1Cl` [Example 42, N-(3,4,5-trichlorophenyl)-1H-pyrazolo[4,3-b]pyridin-3-amine], the half-maximal effective concentration (EC50) came to 721 nM.
As for `Fc1ccc(Cl)cc1Nc1n[nH]c2cccnc12` [Example 16, N-(5-chloro-2-fluorophenyl)-1H-pyrazolo[4,3-b]pyridin-3-amine], the EC50 was found to be 116 nM.
Regarding `Cc1ccc(Nc2n[nH]c3cccnc23)cc1Cl` [Example 83, N-(3-chloro-4-methylphenyl)-1H-pyrazolo[4,3-b]pyridin-3-amine], the EC50 stood at 165 nM.
Take `Clc1cc(Nc2n[nH]c3cccnc23)ccn1` [Example 23, N-(2-chloropyridin-4-yl)-1H-pyrazolo[4,3-b]pyridin-3-amine]: the EC50 was determined as 1490 nM.
With `c1cnc2c(Nc3cncnc3)n[nH]c2c1` [Example 39, N-(pyrimidin-5-yl)-1H-pyrazolo[4,3-b]pyridin-3-amine], the EC50 came out at 8990 nM.
Turning to `Fc1ccc(Nc2n[nH]c3cccnc23)cc1F` [Example 5, N-(3,4-difluorophenyl)-1H-pyrazolo[4,3-b]pyridin-3-amine], the EC50 came to 644 nM.
The result for `Clc1cc(Nc2n[nH]c3cccnc23)ccc1Oc1cnccn1` [Example 66, N-(3-chloro-4-(pyrazin-2-yloxy)phenyl)-1H-pyrazolo[4,3-b]pyridin-3-amine] reads 108 nM.
As for `CC(C)(C)c1cccc(Nc2n[nH]c3cccnc23)c1` [Example 61, N-(3-(tert-butyl)phenyl)-1H-pyrazolo[4,3-b]pyridin-3-amine], the EC50 worked out at 7930 nM.
As to `Clc1cccc(Nc2c[nH]c3cccnc23)c1` [Example 25, N-(3-chlorophenyl)-1H-pyrrolo[3,2-b]pyridin-3-amine], the EC50 came to 6360 nM.
As to `Fc1ccc(Nc2n[nH]c3cccnc23)cc1C(F)(F)F` [Example 71, N-(4-fluoro-3-(trifluoromethyl)phenyl)-1H-pyrazolo[4,3-b]pyridin-3-amine], the EC50 came out at 385 nM.
With `CN1C(=O)COc2cc(Nc3n[nH]c4cccnc34)ccc21` [Example 54, 7-((1H-pyrazolo[4,3-b]pyridin-3-yl)amino)-4-methyl-2H-benzo[b][1,4]oxazin-3(4H)-one], the EC50 is over 10000 nM.
For the compound `COc1cccc(Nc2n[nH]c3cccnc23)c1` [Example 19, N-(3-methoxyphenyl)-1H-pyrazolo[4,3-b]pyridin-3-amine], the EC50 was found to be 169 nM.
As to `Clc1cncc(Nc2n[nH]c3cccnc23)c1` [Example 14, N-(5-chloropyridin-3-yl)-1H-pyrazolo[4,3-b]pyridin-3-amine], the EC50 worked out at 353 nM.
For the compound `COc1ccc(Nc2n[nH]c3cccnc23)cc1OC(F)F` [Example 10, N-(3-(difluoromethoxy)-4-methoxyphenyl)-1H-pyrazolo[4,3-b]pyridin-3-amine], the EC50 came out at 885 nM.
As to `Fc1cc(F)c(F)c(Nc2n[nH]c3cccnc23)c1` [Example 57, N-(2,3,5-trifluorophenyl)-1H-pyrazolo[4,3-b]pyridin-3-amine], the EC50 stood at 782 nM.
Consider `Fc1ccc(Nc2n[nH]c3scnc23)cc1Cl` [Example 41, N-(3-chloro-4-fluorophenyl)-1H-pyrazolo[4,3-d]thiazol-3-amine], for which the EC50 turned out to be 1180 nM.
As to `Fc1cccc(Nc2n[nH]c3cccnc23)c1` [Example 12, N-(3-fluorophenyl)-1H-pyrazolo[4,3-b]pyridin-3-amine], the EC50 was found to be 584 nM.
In the case of `Cn1nc2cccnc2c1Nc1ccc(F)c(Cl)c1` [Example 59, N-(3-chloro-4-fluorophenyl)-2-methyl-2H-pyrazolo[4,3-b]pyridin-3-amine], the EC50 stood at 11900 nM.
The result for `Fc1ccc(Nc2n[nH]c3cncnc23)cc1Cl` [Example 26, N-(3-chloro-4-fluorophenyl)-1H-pyrazolo[4,3-d]pyrimidin-3-amine] reads 3070 nM.
